How the values were obtained:
Rat C6 glioma cells = experiment: MTT viability assay, rat C6 glioma cells; assay type: cell-based; settings: 10 and 30 μM; concentration- and time-dependent; significant at 5 d and 7 d (30 μM) and at 7 d (10 μM)
Experimental: (§1) Rat C6 glioma cells were grown in DMEM and human glioma cells (U87, A172) in RPMI, supplemented with 10% (v/v) fetal calf serum, 100 U/mL penicillin and 100 U/mL streptomycin in a 5% CO2 atmosphere. Primary astrocyte cultures were prepared as described previously (J Neurosci 1998; 18: 4451-60) and grown in DMEM, supplemented with 2.5% (v/v) fetal calf serum, 100 U/mL penicillin and 100 U/mL streptomycin in a 5% CO2 atmosphere. […] Experiments were performed in triplicate.

[1] = Daily body weight in C6 rat glioma model; assay type: in vivo; settings: daily weighing; vehicle group lost weight significantly at 17 d
Experimental: Before implantation, 85-90% confluent C6 cells were trypsinized, rinsed with DMEM+10% fetal calf serum, and centrifuged at 1000 rpm for 4 min. The cell pellet was resuspended in DMEM and placed on ice. Concentration of viable cells was adjusted to 1×10^5 cells/1 μl of DMEM. Each rat was anesthetized and placed in a stereotactic frame (David Kopf Instruments, Tujunga, Calif., USA), a hole was drilled at AP 0.0, R -3.0 relative to bregma according to the stereotaxic atlas of […], 1963). Tumor cells were injected at a rate of 0.5 μl/s, using a 2 μl Hamilton (#2701) syringe (Reno, Nev., USA) with a 26 s-gauge needle mounted on a stereotactic holder at a depth of 5 mm. […] For intracerebral administration of pio/vehicle (DMSO), the tip of an Alzet-brain-infusion-kit (Cupertino, Calif., USA) was placed in a depth of 5 mm, connected to a 2ML4 Alzet osmotic pump (Cupertino, Calif., USA). Drug administration began 4 h after surgery. […] The pumps were filled with 20 μM pio solved in PBS or vehicle (DMSO, 0.1% final concentration) solved in PBS. Animals were randomly distributed in two groups, treated with pio filled pumps (n=26) or vehicle filled pumps (n=26). Thereafter skull was cleaned and the incision sutured. […] Control animals received Purina chow without additions. Rats were allowed free access to the chow. Tumors were allowed to grow and animals were weighed daily. […]

C6 glioma cell cultures = experiment: Ki-67 immunoreactivity and proliferation-index in vitro; assay type: cell-based, rat; settings: 30 μM pio, 2 d and 5 d
Experimental: C6 glioma cell cultures were treated with pio or vehicle for 2 d and 5 d and fixed in 4% paraformaldehyde, rinsed in TBS and incubated with rabbit anti-Ki-67 (1:200 dilution) at 4° C. overnight and processed as described above. Counterstaining was carried out with propidium iodide (P1; 1:40; Sigma, St. Louis, Mo., USA) or DAPI-staining (1:500 in PBS). For determination of the proliferation-index, Ki-67 positive cells in pio and vehicle treated cells and animals were counted, the percentage of Ki-67 positive cells in 1×10^3 tumor cells (P1 staining used in the in vitro experiments—not shown; DAPI stain used in the in vivo experiments) calculated and statistically compared. The percentage of cleaved caspase-3 positive cells was assessed by counting the immunopositive cells in 1×10^3 tumor (DAPI stain) cells and statistically compared.

human glioma cells A172 = experiment: MTT viability assay, human A172 glioma cells; assay type: cell-based; settings: 30 μM pio; 3, 5 and 7 d
Experimental: as §1

C6 glioma tumor cells = experiment: BrdU incorporation in vivo; parameters: species or system rat; settings: 14 d
Experimental: At thirteen days of treatment animals were intraperitoneally injected with 300 mg/kg of 5-bromodeoxyuridine (BrdU; Sigma, St. Louis, Mo.), a thymidine analog that incorporates into the DNA of dividing cells during S phase and can be detected immunohistochemically. Twenty-four hours later, these animals were anesthetized and perfused with phosphate-buffered saline (PBS). Brains were dissected, frozen, cut and immunostained in the following manner: Sections were fixed in 4% paraformaldehyde, washed in PBS, and incubated in 2 N HCl for 10 min at room temperature. Sections were again washed in PBS and incubated in BrdU primary antibody (rat monoclonal 1:100, Abcam, Cambridge, UK) in PBS containing 5% normal goat serum overnight at 4 C. After washing with PBS, sections were incubated in rhodamine-labeled anti-rat secondary antibody (1:100, Jackson, West Grove, Pa., USA) in PBS containing 5% normal goat serum for 1 h at room temperature. The number of dividing cells present in the tumor of these BrdU-stained sections was counted and compared to total amount of tumor cells stained with DAPI.

[2] = Clinical assessment of neurological deficits in C6 rat glioma model; assay type: in vivo; settings: intracerebral treatment, 21 d
Experimental: After striatal injection of C6 cells and intracerebral treatment with pio or vehicle for 21 d, the animals were examined for neurological deficits. Neurological function was quantified by evaluation of hemiparesis, cycling and immobility (J Neurosurg 1986; 65: 222-9, Stroke 1999; 30: 427-31; discussion 431-2). Hemiparesis was assessed by forelimb flexion and immobility by the loss of ability to walk a distance greater than 15 cm. One point was given for each negative finding and total score then computed. The scores of the treated and untreated group were averaged. A blinded observer performed neurological examinations.

CCc1ccc(CCOc2ccc(CC3SC(=O)NC3=O)cc2)nc1 (stereo not shown) [pioglitazone, 5-[4-[2-(5-ethylpyridin-2-yl)ethoxyl]benzyl]thiazolidine-2,4-dione]
cellular viability, effect in words (Rat C6 glioma cells): significantly reduced the cellular viability
weight loss [1]: did not show any weight loss
number of Ki-67 immunopositive cells compared to vehicle (C6 glioma cell cultures): reduced the number of Ki-67 immunopositive cells
cellular viability, effect in words (human glioma cells A172): significantly reduced cellular viability
BrdU-incorporation (C6 glioma tumor cells): reduced
percentage of BrdU positive cells (C6 glioma tumor cells): significantly lower
clinical outcome overall [2]: significant better clinical outcome
cycling ([2]; versus vehicle): no cycling
hemiparesis ([2]; versus vehicle): less hemiparesis
immobility ([2]; versus vehicle): less immobility

From patent publication US20100022600A1, “METHODS AND COMPOSITIONS FOR TREATING CENTRAL NERVOUS SYSTEM TUMORS” (priority 2006, published 2010)
